Here are results for one compound from patent publication US20220054513A1, “COMBINATION COMPOSITIONS COMPRISING A BETA-LACTAMASE INHIBITOR” (VenatoRx Pharmaceuticals, Inc., priority 2018, published 2022).

The test system of this assay is β-lactamase expressing Enterobacteriaceae. In words: broth microdilution MIC of cefiderocol +/- Compound 1, panel of 30 Enterobacteriaceae strains (MIC50/MIC90). It is filed as cell-based. A general note: Dilution methods test growth across graded concentrations, often in twofold steps.

For the compound `CC(C)(O/N=C(\C(=O)N[C@@H]1C(=O)N2C(C(=O)[O-])=C(C[N+]3(CCNC(=O)c4ccc(O)c(O)c4Cl)CCCC3)CS[C@H]12)c1csc(N)n1)C(=O)O` [FDC, cefiderocol], for the setting “IDM”, the MIC50 turned out to be 0.5 µg/mL and the MIC90 amounted to 4 µg/mL. For the same compound, where the note is “MHBII”, the MIC50 stood at 4 µg/mL and the MIC90 turned out to be 32 µg/mL.

In general, MIC50 refers to an inhibitory concentration at the 50% level, which refers to growth in some studies and to a panel of isolates in others. The term MIC90 denotes the lowest concentration that inhibits either 90% of growth or 90% of the strains tested, depending on the study.
